These molecules were tested on microfilariae of Dirofilaria immitis (assay: Dirofilaria immitis, Microfilaria (DiMF) In vitro Assay). Conditions: 72 h, read-out: DiMF Minimum Effective Dose (MED), approximately 72 hours incubation, microfilariae assessed for survival or paralysis.
Assay type: cell-based
With CC(C)C[C@H]1C(=O)O[C@H](Cc2ccc(Cn3nc(-c4ccco4)cc3CO)cc2)C(=O)N(C)[C@@H](CC(C)C)C(=O)O[C@H](C)C(=O)N(C)[C@@H](CC(C)C)C(=O)O[C@H](Cc2ccc(Cn3nc(C#N)cc3C#N)cc2)C(=O)N(C)[C@@H](CC(C)C)C(=O)O[C@H](C)C(=O)N1C [Example 1a-3, 1-(4-(((2R,5S,8R,11S,14R,17S,20R,23S)-14-(4-((3-(furan-2-yl)-5-(hydroxymethyl)-1H-pyrazol-1-yl)methyl)benzyl)-5,11,17,23-tetraisobutyl-4,8,10,16,20,22-hexamethyl-3,6,9,12,15,18,21,24-octaoxo-1,7,13,19-tetraoxa-4,10,16,22-tetraazacyclotetracosan-2-yl)methyl)benzyl)-1H-pyrazole-3,5-dicarbonitrile] the minimal effective concentration was 0.01 to 0.1 µM.
Work on COc1cnn(Cc2cccc(C[C@H]3OC(=O)[C@H](CC(C)C)N(C)C(=O)[C@@H](C)OC(=O)[C@H](CC(C)C)N(C)C(=O)[C@@H](Cc4cccc(Cn5cc(OC)cn5)c4)OC(=O)[C@H](CC(C)C)N(C)C(=O)[C@@H](C)OC(=O)[C@H](CC(C)C)N(C)C3=O)c2)c1 [Example 4-9, (3S,6R,9S,12R,15S,18R,21S,24R)-3,9,15,21-tetraisobutyl-6,18-bis(3-((4-methoxy-1H-pyrazol-1-yl)methyl)benzyl)-4,10,12,16,22,24-hexamethyl-1,7,13,19-tetraoxa-4,10,16,22-tetraazacyclotetracosan-2,5,8,11,14,17,20,23-octaone] yielded a minimal effective concentration of 0.01 to 0.1 µM.
In the case of CC(C)C[C@H]1C(=O)O[C@H](Cc2ccc(Cn3ccnc3I)cc2)C(=O)N(C)[C@@H](CC(C)C)C(=O)O[C@H](C)C(=O)N(C)[C@@H](CC(C)C)C(=O)O[C@H](Cc2ccc(Cn3ccnc3I)cc2)C(=O)N(C)[C@@H](CC(C)C)C(=O)O[C@H](C)C(=O)N1C [Example 6-10, (3S,6R,9S,12R,15S,18R,21S,24R)-6,18-bis(4-((2-iodo-1H-imidazol-1-yl)methyl)benzyl)-3,9,15,21-tetraisobutyl-4,10,12,16,22,24-hexamethyl-1,7,13,19-tetraoxa-4,10,16,22-tetraazacyclotetracosan-2,5,8,11,14,17,20,23-octaone], the minimal effective concentration was 0.01 to 0.1 µM.
CNC(=O)c1cnn(Cc2ccc(C[C@H]3OC(=O)[C@H](CC(C)C)N(C)C(=O)[C@@H](C)OC(=O)[C@H](CC(C)C)N(C)C(=O)[C@@H](Cc4ccc(Cn5cc(C(=O)NC)cn5)cc4)OC(=O)[C@H](CC(C)C)N(C)C(=O)[C@@H](C)OC(=O)[C@H](CC(C)C)N(C)C3=O)cc2)c1 [Example 1b-53, 1,1′-(((((2R,5S,8R,11 S,14R,17S,20R,23S)-5,11,17,23-tetraisobutyl-4,8,10,16,20,22-hexamethyl-3,6,9,12,15,18,21,24-octaoxo-1,7,13,19-tetraoxa-4,10,16,22-tetraazacyclotetracosane-2,14-diyl)bis(methylene))bis(4,1-phenylene))bis(methylene))bis(N-methyl-1H-pyrazole-4-carboxamide)] gave a minimal effective concentration of 0.01 to 0.1 µM.
CC(C)C[C@H]1C(=O)O[C@H](Cc2ccc(Cn3nc(CO)cc3C3CC3)cc2)C(=O)N(C)[C@@H](CC(C)C)C(=O)O[C@H](C)C(=O)N(C)[C@@H](CC(C)C)C(=O)O[C@H](Cc2ccc(Cn3nc(CO)cc3C3CC3)cc2)C(=O)N(C)[C@@H](CC(C)C)C(=O)O[C@H](C)C(=O)N1C [Example 1b-8, (3S,6R,9S,12R,15S,18R,21S,24R)-6,18-bis(4-((5-cyclopropyl-3-(hydroxymethyl)-1H-pyrazol-1-yl)methyl)benzyl)-3,9,15,21-tetraisobutyl-4,10,12,16,22,24-hexamethyl-1,7,13,19-tetraoxa-4,10,16,22-tetraazacyclotetracosan-2,5,8,11,14,17,20,23-octaone] was tested, and the minimal effective concentration was 0.001 to 0.01 µM.
In the case of Cc1nn(Cc2ccc(C[C@H]3OC(=O)[C@H](CC(C)C)N(C)C(=O)[C@@H](C)OC(=O)[C@H](CC(C)C)N(C)C(=O)[C@@H](Cc4ccc(Cn5nc(C)c(OC(C)C)c5C)cc4)OC(=O)[C@H](CC(C)C)N(C)C(=O)[C@@H](C)OC(=O)[C@H](CC(C)C)N(C)C3=O)cc2)c(C)c1OC(C)C [Example 1b-188, (3S,6R,9S,12R,15S,18R,21S,24R)-3,9,15,21-tetraisobutyl-6,18-bis(4-((4-isopropoxy-3,5-dimethyl-1H-pyrazol-1-yl)methyl)benzyl)-4,10,12,16,22,24-hexamethyl-1,7,13,19-tetraoxa-4,10,16,22-tetraazacyclotetracosan-2,5,8,11,14,17,20,23-octaone], the minimal effective concentration was 0.01 to 0.1 µM.
With CC(C)C[C@H]1C(=O)O[C@H](Cc2ccc(Cn3ccc(-c4ccccn4)n3)cc2)C(=O)N(C)[C@@H](CC(C)C)C(=O)O[C@H](C)C(=O)N(C)[C@@H](CC(C)C)C(=O)O[C@H](Cc2ccc(Cn3ccc(-c4ccccn4)n3)cc2)C(=O)N(C)[C@@H](CC(C)C)C(=O)O[C@H](C)C(=O)N1C [Example 1b-120, (3S,6R,9S,12R,15S,18R,21S,24R)-3,9,15,21-tetraisobutyl-4,6,10,16,18,22-hexamethyl-12,24-bis(4-((3-(pyridin-2-yl)-1H-pyrazol-1-yl)methyl)benzyl)-1,7,13,19-tetraoxa-4,10,16,22-tetraazacyclotetracosan-2,5,8,11,14,17,20,23-octaone] the minimal effective concentration was 0.01 to 0.1 µM.
In the case of Cc1nn(Cc2ccc(C[C@H]3OC(=O)[C@H](CC(C)C)N(C)C(=O)[C@@H](C)OC(=O)[C@H](CC(C)C)N(C)C(=O)[C@@H](Cc4ccc(Cn5nc(C6CC6)cc5C5CC5)cc4)OC(=O)[C@H](CC(C)C)N(C)C(=O)[C@@H](C)OC(=O)[C@H](CC(C)C)N(C)C3=O)cc2)cc1CO [Example 1a-8, (3S,6R,9S,12R,15S,18R,21S,24R)-6-(4-((3,5-dicyclopropyl-1H-pyrazol-1-yl)methyl)benzyl)-18-(4-((4-(hydroxymethyl)-3-methyl-1H-pyrazol-1-yl)methyl)benzyl)-3,9,15,21-tetraisobutyl-4,10,12,16,22,24-hexamethyl-1,7,13,19-tetraoxa-4,10,16,22-tetraazacyclotetracosan-2,5,8,11,14,17,20,23-octaone], the minimal effective concentration was 0.01 to 0.1 µM.
For CC(C)C[C@H]1C(=O)O[C@H](Cc2ccc(Cn3ccnc3-c3ccccc3)cc2)C(=O)N(C)[C@@H](CC(C)C)C(=O)O[C@H](C)C(=O)N(C)[C@@H](CC(C)C)C(=O)O[C@H](Cc2ccc(Cn3ccnc3-c3ccccc3)cc2)C(=O)N(C)[C@@H](CC(C)C)C(=O)O[C@H](C)C(=O)N1C [Example 6-11, (3S,6R,9S,12R,15S,18R,21S,24R)-3,9,15,21-tetraisobutyl-4,6,10,16,18,22-hexamethyl-12,24-bis(4-((2-phenyl-1H-imidazol-1-yl)methyl)benzyl)-1,7,13,19-tetraoxa-4,10,16,22-tetraazacyclotetracosan-2,5,8,11,14,17,20,23-octaone], the minimal effective concentration was 0.01 to 0.1 µM.
Cc1nn(Cc2ccc(C[C@H]3OC(=O)[C@H](CC(C)C)N(C)C(=O)[C@@H](C)OC(=O)[C@H](CC(C)C)N(C)C(=O)[C@@H](Cc4ccc(Cn5cc(Br)c(C)n5)cc4)OC(=O)[C@H](CC(C)C)N(C)C(=O)[C@@H](C)OC(=O)[C@H](CC(C)C)N(C)C3=O)cc2)cc1Br [Example 1b-43, (3S,6R,9S,12R,15S,18R,21S,24R)-6,18-bis(4-((4-bromo-3-methyl-1H-pyrazol-1-yl)methyl)benzyl)-3,9,15,21-tetraisobutyl-4,10,12,16,22,24-hexamethyl-1,7,13,19-tetraoxa-4,10,16,22-tetraazacyclotetracosan-2,5,8,11,14,17,20,23-octaone] showed a minimal effective concentration of 0.01 to 0.1 µM.

— patent US11331369B2, “Endoparasitic depsipeptides” (Zoetis Services LLC, priority 2017, dated 2022)
